Experimental data as given in ChEMBL document CHEMBL5370662, “Reactive Oxygen Species-Activated Metal-Free Carbon Monoxide Prodrugs for Targeted Cancer Treatment” (J Med Chem, 2023).
Active and inactive are the calls of the source. The rule behind the calls is not given here.

Experiments:
[1] = Prodrug conversion in PBS buffer assessed as formation of 3',6'-dimethyl-[1,1':2',1''-terphenyl]-4'-carbonitrile by measuring half life at pH 7.4 at 25 uM measured after 24 hrs in presence of H2O2 by HPLC analysis; assay type: ADME; conditions: pH 7.4, 24 h
[2] = Prodrug conversion in PBS buffer assessed as formation of oxidized intermediate by measuring half life at pH 7.4 at 25 uM measured after 24 hrs in presence of H2O2 by HPLC analysis; assay type: ADME; conditions: pH 7.4, 24 h
4T1 [3] = assay: Antiproliferative activity against mouse 4T1 cells assessed as inhibition of cell growth measured after 24 hrs by Cell Counting Kit-8 assay; assay type: functional, cell-based; conditions: for IC50: 4T1, 24 h
[4] = Prodrug conversion in PBS buffer assessed as carbon monoxide release by measuring half life at pH 7.4 at 25 uM by HPLC analysis; assay type: ADME; conditions: pH 7.4, 25 µM
[5] = Toxicity in Balb/c mouse implanted with mouse 4T1 cells assessed as increase in survival rate at 10 mg/kg, iv administered on day 0,3, and 5 measured after 24 days (reference value: 27 days); assay type: organism-based; conditions: in vivo, 576 h, time 24 day
Panc02 [6] = assay: Antiproliferative activity against Panc02 cells assessed as inhibition of cell growth measured after 24 hrs by Cell Counting Kit-8 assay; assay type: functional, cell-based; conditions: Mus musculus
[7] = Prodrug conversion in Balb/c mouse implanted with mouse 4T1 cells assessed as carbon monoxide release in tumor by measuring red fluorescence at 10 mg/kg, iv incubated for 6 hrs followed by 1-Ac probe addition by hoechst dye based confocal laser scanning microscopic analysis; assay type: ADME, organism-based; conditions: in vivo
[8] = Prodrug conversion in 1-Ac probed mouse 4T1 cells assessed as carbon monoxide release by measuring red fluorescence at 20 uM incubated for 6 hrs by hoechst dye based confocal laser scanning microscopic analysis; assay type: ADME, cell-based; conditions: 4t1, 6 h
[9] = Toxicity in Balb/c mouse implanted with mouse 4T1 cells assessed as change in body weight at 10 mg/kg, iv administered on day 0,3, and 5 measured after 24 days; assay type: organism-based; conditions: in vivo, 576 h, time 24 day
4T1 [10] = assay: Antitumor activity against mouse 4T1 cells implanted in Balb/c mouse assessed as fold change in tumor volume at 10 mg/kg, iv administered on day 0,3, and 5 measured after 24 days (reference value: 25.5); assay type: functional; conditions: for fold change (FC): time 24 day; for Activity: time 24.0 day
[11] = Prodrug conversion in PBS buffer assessed as carbon monoxide release by measuring half life at pH 7.4 at 25 uM in presence of H2O2 by HPLC analysis; assay type: ADME; conditions: pH 7.4, 25 µM
Panc02 [12] = assay: Antiproliferative activity against Panc02 cells assessed as inhibition of cell growth upto 100 uM measured after 24 hrs by Cell Counting Kit-8 assay; assay type: functional, cell-based; conditions: Mus musculus
4T1 [13] = assay: Antiproliferative activity against mouse 4T1 cells assessed as inhibition of cell growth upto 100 uM measured after 24 hrs by Cell Counting Kit-8 assay; assay type: functional, cell-based

## Cc1ccc(S[C@H]2C(C#N)[C@]3(C)C(=O)[C@]2(C)C(c2ccccc2)=C3c2ccccc2)cc1 (stereo partly specified)
[1]
  t1/2: 12 h
[2]
  t1/2: 2 h

## CCCCCS[C@H]1C(C=O)[C@]2(C)C(=O)[C@]1(C)C(c1ccccc1)=C2c1ccccc1 (stereo partly specified)
4T1 [3]
  IC50: 29.4 µM
[4]
  t1/2: 81.6 h
[5]
  Survival: 42 days
Panc02 [6]; Panc02, 24 h
  IC50: 72.5 µM
[7]
  Drug metabolism: Metabolite_Detected
[8]
  Drug metabolism: Metabolite_Detected
[9]
  Activity: Non-Toxic
4T1 [10]
  fold change (FC): 9.4
[11]
  t1/2: 3.4 h

## Cc1ccc(S[C@H]2C(C=O)[C@]3(C)C(=O)[C@]2(C)C(c2ccccc2)=C3c2ccccc2)cc1 (stereo partly specified)
[4]
  t1/2: 3 h
[11]
  t1/2: 2.2 h

## Cc1cc(C#N)c(C)c(-c2ccccc2)c1-c1ccccc1
Panc02 [12]
  Activity: inactive
4T1 [13]
  Activity: inactive
4T1 [10]
  Activity: inactive

## Cc1cc(C=O)c(C)c(-c2ccccc2)c1-c1ccccc1
4T1 [3]
  Activity: inactive
Panc02 [6]
  Activity: inactive
4T1 [10]
  Activity: inactive

## CCCCCS[C@H]1C(C(=O)OC)[C@]2(C)C(=O)[C@]1(C)C(c1ccccc1)=C2c1ccccc1 (stereo partly specified)
4T1 [3]
  Activity: inactive
Panc02 [6]
  Activity: inactive
[7]
  Drug metabolism: Metabolite_Notdetected
[8]
  Drug metabolism: Metabolite_Notdetected
4T1 [10]
  Activity: inactive

## CCCCCS[C@H]1C(C#N)[C@]2(C)C(=O)[C@]1(C)C(c1ccccc1)=C2c1ccccc1 (stereo partly specified)
Panc02 [12]
  Activity: inactive
[1]
  t1/2: 12 h
4T1 [3]
  IC50: > 100 µM
[2]
  t1/2: 2 h
[7]
  Drug metabolism: Metabolite_Detected
[8]
  Drug metabolism: Metabolite_Detected
4T1 [10]
  fold change (FC): 16.5
